Assay results: patent US7402311B2, “Composition and method for treating non-bacterial cystitis” (priority 2003, dated 2008)

Assays:
[1] = system: patients without positive bacterial cultures localized to the prostatic fluid; assay: Example II: double blind study using 30 patients; type: in vivo
Experimental: A double blind study using 30 patients without positive bacterial cultures localized to the prostatic fluid are enrolled in a double blind study. Seventeen of the patients receive a composition comprised of quercetin in amount of 500 milligrams, bromelin in an amount of 10 milligrams, and papain in an amount of 10 milligrams as the active ingredients thereof. After a randomized study is completed, an additional fifteen patients are treated in an open label study with only the […]. […] The mean symptom score improves from 21.0 to 13.1 in the group receiving quercetin, but from 20.2 to 18.8 in the placebo group. This represents an improvement of 35%. In those patients which receive only the quercetin, without the papain and bromelin, with obtainable secretions, the white blood cell count in the decreases from 16.8 to 5.3, versus a decrease from 13.1 to 8.3 in the placebo patients.

[2] = Tests of bioavailability / transmural intestinal absorption of quercetin; type: in vivo; details: quercetin alone
[3] = system: chronic interstitial cystitis syndromes; details: patients taking quercetin alone; cited from earlier work

bioavailability [2]: does not have a high bioavailability | transmural intestinal absorption [2]: relatively low
SMILES: O=c1c(O)c(-c2ccc(O)c(O)c2)oc2cc(O)cc(O)c12 [quercetin]
improvement of mean symptom score ([1]; double blind study): 35% | mean symptom score, after treatment ([1]; double blind study, end value): 13.1 | mean symptom score, before treatment ([1]; double blind study, start value): 21.0 | white blood cell count, after treatment ([1]; patients with obtainable secretions, end value): 5.3 | white blood cell count, before treatment ([1]; patients with obtainable secretions, start value): 16.8 | pain [3]: controlled | severe urinary symptoms [3]: least likely to improve | symptomatic response [3]: significant
